{
  "source": "patent US8883842B2",
  "about": "“Use of HDAC inhibitors for the treatment of myeloma” (Novartis AG, priority 2005, dated 2014)",
  "key": {"[1]": {"tested_on": "MM patient cells", "experiment": "Growth inhibition (MTS assay and tritiated-thymidine uptake) in MM patient cells", "assay_type": "cell-based", "conditions": "Homo sapiens, 48 hours, read-out: median inhibitory concentration, myeloma cell growth", "protocol": "(§1) Bortezomib-sensitive (MM.1S) and Bortezomib-resistant (MM.1R) human MM cell lines, as well as RPMI-8226 cells resistant to Doxorubicin (Dox 40), Mitoxantrone (MR20), and Melphalan (LR5), were cultured in RPMI-1640 media (Cellgro, Mediatech, VA) with 10% fetal bovine serum, 2 mmol/L L-glutamine (GIBCO, Grand Island, N.Y.), 100 U/mL penicillin, and […] streptomycin (GIBCO). Drug-resistant cell lines were cultured with either doxorubicin, mitoxantrone, melphalan or bortezomib to confirm their lack of drug sensitivity. MM patient cells were purified (>95% CD138+) by positive selection with anti-CD138 MACS Microbeads (Miltenyi, San Diego, Calif.).\n(§2) DNA synthesis was measured by 3H-thymidine (NEN Products, Boston, Mass.) uptake. Cells were pulsed with 3H-thymidine (0.5 μCi/well) during the last 8 hours of 48-hour cultures. All of the experiments were performed in triplicate.\n(§3) Cells from 24-, 48- or 72-hour cultures in 200 μL media plus drug were pulsed with 40 μL of 5 mg/mL MTS to each well for the last 4 hours of the cultures. Absorbance was measured at 490 nm using a spectrophotometer (Molecular Devices Corp., Sunnyvale, Calif.)."}, "[2]": {"biological_target": "T1, HDAC6, or tubulin deacetylase (TDAC) (Homo sapiens, UniProt Q9UBN7)", "T1 construct": "endogenous in cells; host or cells: MM.1S cells", "T1 sequence (Q9UBN7 1-1215)": "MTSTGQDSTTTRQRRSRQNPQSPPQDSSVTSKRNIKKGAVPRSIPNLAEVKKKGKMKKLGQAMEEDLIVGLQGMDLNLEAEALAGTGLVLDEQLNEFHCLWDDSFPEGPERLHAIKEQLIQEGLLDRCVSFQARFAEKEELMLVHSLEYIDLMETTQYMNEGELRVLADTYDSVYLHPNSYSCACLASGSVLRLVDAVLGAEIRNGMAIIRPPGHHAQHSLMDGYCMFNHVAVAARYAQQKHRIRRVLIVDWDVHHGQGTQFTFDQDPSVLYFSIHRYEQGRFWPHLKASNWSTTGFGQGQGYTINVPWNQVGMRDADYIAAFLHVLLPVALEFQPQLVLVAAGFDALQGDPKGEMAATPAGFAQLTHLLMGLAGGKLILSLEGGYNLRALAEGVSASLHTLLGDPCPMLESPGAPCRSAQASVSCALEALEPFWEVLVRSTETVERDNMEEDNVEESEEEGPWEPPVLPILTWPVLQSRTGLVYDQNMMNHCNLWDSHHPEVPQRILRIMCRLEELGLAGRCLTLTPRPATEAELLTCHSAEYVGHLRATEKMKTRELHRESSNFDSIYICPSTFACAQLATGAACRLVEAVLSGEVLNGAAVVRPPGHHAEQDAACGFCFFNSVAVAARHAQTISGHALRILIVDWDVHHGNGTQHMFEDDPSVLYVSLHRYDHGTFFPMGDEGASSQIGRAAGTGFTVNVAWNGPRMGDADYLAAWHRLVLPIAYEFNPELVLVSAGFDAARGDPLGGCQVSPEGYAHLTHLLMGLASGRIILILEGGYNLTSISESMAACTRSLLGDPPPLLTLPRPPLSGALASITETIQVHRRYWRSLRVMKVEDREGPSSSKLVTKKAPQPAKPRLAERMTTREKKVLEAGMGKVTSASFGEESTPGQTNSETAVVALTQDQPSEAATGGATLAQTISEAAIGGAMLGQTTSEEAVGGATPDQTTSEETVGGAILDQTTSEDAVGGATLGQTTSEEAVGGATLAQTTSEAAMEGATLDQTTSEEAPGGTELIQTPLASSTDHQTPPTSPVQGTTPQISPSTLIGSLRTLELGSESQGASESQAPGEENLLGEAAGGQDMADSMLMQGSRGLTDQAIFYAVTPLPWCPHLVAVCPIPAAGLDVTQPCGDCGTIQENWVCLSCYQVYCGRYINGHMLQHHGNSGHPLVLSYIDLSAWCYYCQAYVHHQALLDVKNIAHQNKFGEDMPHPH", "experiment": "Inhibition of TDAC (HDAC6, tubulin deacetylase) in MM.1S cells", "assay_type": "cell-based", "conditions": "low nanomolar concentrations", "description": "(§4) Cell lysates were subjected to SDS-PAGE, transferred to polyvinylidene difluoride (PVDF) membrane, and immunoblotted with anti-acetylated histone (Upstate Biotechnology, Lake Placid, N.Y.), anti-p21 antibody (Santa Cruz Biotech, Santa Cruz, Calif.), anti-PARP; anti-caspase-8, anti-caspase-9 and anti-caspase 3 (Cell Signaling, MA); as well as anti-polyubiquitin conjugates, anti-LMP7, anti-β5 (Affiniti, Mamhead, Exeter, Devon, UK). Membranes were stripped and re-probed with anti-tubulin or anti-β-actin (Sigma, St Louis, Mo.) to ensure equivalent protein loading."}, "[3]": {"tested_on": "MM cells", "experiment": "Combination with proteasome inhibitor bortezomib on MM cells", "assay_type": "cell-based, human", "protocol": "DNA synthesis was measured by 3H-thymidine (NEN Products, Boston, Mass.) uptake. Cells were pulsed with 3H-thymidine (0.5 μCi/well) during the last 8 hours of 48-hour cultures. All of the experiments were performed in triplicate. Statistical significance of differences observed in drug-treated versus control cultures was determined using Student's t test. The minimal level of significance was p<0.05. […] The survival curves for mice were computed using the Kaplan-Meier method. The survival time differences between the control and treated group were compared using a log-rank test. The median survival times were compared using the Fisher-exact test. To compare the rate of tumor growth in the two arms, a linear mixed effect model (random coefficient model) was fitted."}, "[4]": {"tested_on": "MM cell lines resistant to conventional therapies", "experiment": "Growth inhibition (MTS assay and tritiated-thymidine uptake) in MM cell lines", "assay_type": "cell-based", "conditions": "Homo sapiens, 48 h, read-out: median inhibitory concentration, myeloma cell growth", "protocol": "as §1, §2, §3"}, "[5]": {"tested_on": "MM.1S cells co-cultured with bone marrow stromal cells", "experiment": "MM.1S proliferation in co-culture with bone marrow stromal cells", "assay_type": "cell-based, human", "protocol": "Bone marrow specimens were obtained from patients with MM. Mononuclear cells, separated by FicoII-Hipaque density sedimentation, were used to establish long-term BM cultures. When an adherent cell monolayer had developed, cells were harvested in HBSS containing 0.25% trypsin and 0.02% EDTA and were washed and collected by centrifugation. The BMSCs were then plated onto flat-bottom 96-well plates overnight, and then 3×10^4 mM.1S cells were added for 48 hours. 150 μL of supernatant was removed and cells were pulsed with [3H]thymidine (0.5 μCi/well) during the last 8 hours of 48-hour cultures."}, "[6]": {"tested_on": "MM.1S cells", "experiment": "Western blot of apoptosis and cell cycle markers in MM.1S cells", "assay_type": "cell-based, human", "description": "as §4"}},
  "data": [
    {"smiles": "Cc1[nH]c2ccccc2c1CCNCc1ccc(/C=C/C(=O)NO)cc1", "note": "[Compound (III), N-hydroxy-3-[4-[[[2-(2-methyl-1H-indol-3-yl)-ethyl]-amino]methyl]phenyl]-2E-2-propenamide]", "values": [
      {"measurement": "IC50", "setting": "[1]", "result": "< 0.01", "unit": "µM"},
      {"measurement": "inhibition of TDAC", "setting": "[2]", "result": "dose-dependent inhibition"},
      {"measurement": "activity in combination with bortezomib", "setting": "[3]", "result": "Synergistic activity"},
      {"measurement": "IC50", "setting": "[4]", "result": "< 0.01", "unit": "µM"},
      {"measurement": "MM.1S myeloma cell proliferation", "setting": "[5]", "result": "inhibited"},
      {"measurement": "c-myc expression", "setting": "[6]", "result": "down-regulation"},
      {"measurement": "p21 expression", "setting": "[6]", "result": "up-regulation"},
      {"measurement": "cleavage of caspase 8, caspase 9, caspase 3 and PARP", "setting": "[6]; 20 nM", "result": "Significant cleavage"}
    ]}
  ]
}
